pIC50: −log10 of the molar value. “Also recorded” adds a separate entry of the source.
Experiments:
[1] = molecular target: human mitochondrial aldehyde dehydrogenase (ALDH-2) (Homo sapiens (Human), UniProt P05091); conditions: U.S. Pat. Nos. 5,624,910 and 6,121,010; cited from earlier work
recombinant human ALDH2 = recombinant human ALDH2 (Homo sapiens (Human), UniProt P05091); assay: ALDH2 assay (NADH formation); type: biochemical; conditions: 10 nM recombinant human ALDH2, 150 uM formaldehyde, 60 min pre-incubation; read-out: IC50 hALDH2
Experimental: Standard ALDH2 reaction mixtures contained 150 uM formaldehyde, 2.5 mM NAD^+, 10 mM MgCl2 and 10 nM recombinant human ALDH2 in 50 mM Hepes buffer, pH 7.4, 0.01% Tween 20 in a final volume of 50 ul using 384-well plates. After 60 min of pre-incubation of compound with ALDH2 and formaldehyde, the reaction was started by adding NAD+ and the reaction mixture was allowed to proceed for 90 minutes. Activity of the enzyme was determined by monitoring NADH formation using Perkin-Elmer Envision Reader with excitation and emission wavelengths set at 340 and 460 nm, respectively.
(§1) Note: IC50 refers to the concentration of a compound that inhibits a reaction by 50%. In the case of competitive inhibition, IC50=2Ki when the substrate is present at the Km concentration, as per the relationship: Ki=IC50/[1+(substrate concentration/Km)].

hMAO-A = hMAO-A (Homo sapiens (Human), UniProt P21397); assay: MAO-A assay (luminogenic MAO substrate); type: biochemical; conditions: microsome contained MAO-A, 160 uM substrate, 20 min pre-incubation; unit inferred
Experimental: (§2) MAO assays included luminogenic MAO substrate, reaction buffers, Luciferin Detection and the reconstitution buffer with esterase. Standard MAO reaction mixtures included microsome contained MAO-A (2 ug) or MAO-B (10 ug), 160 uM substrate for MAO-A or 16 uM substrate for MAO-B, MAO-A buffer (100 mM Hepes buffer, pH 7.5, 5% glycerol) or MAO-B buffer (100 mM Hepes, pH 7.5, 5% glycerol, 10% dimethyl sulfoxide) in a final volume of 30 ul. After 20 minutes of pre-incubation of the enzyme with compounds, the reaction was initiated by adding enzyme substrate and the reaction was allowed to proceed for 60 minutes. Reconstituted Luciferin Detection Reagent (30 ul) was then added is added to simultaneously stop the MAO reaction and convert the methyl ester derivative to luciferin and produce light. The amount of light produced is directly proportional to the activity of MAO. The mixtures were further incubated for 20 minutes and activity of the enzyme was determined using Perkin-Elmer Envision Reader.
as §1

hMAO-B = hMAO-B (Homo sapiens (Human), UniProt P27338); assay: MAO-B assay (luminogenic MAO substrate); type: biochemical; conditions: microsome contained MAO-B, 16 uM substrate, 20 min pre-incubation; unit inferred
Experimental: as §2, §1

[2] = system: cocaine dependency and relapse; assay: Operant cocaine self administration and reinstatement model in rats; conditions: p.o.
ethanol intake = conditions: literature (Keung and Vallee); cited from earlier work

hMAO-B, sequence (P27338 whole entry): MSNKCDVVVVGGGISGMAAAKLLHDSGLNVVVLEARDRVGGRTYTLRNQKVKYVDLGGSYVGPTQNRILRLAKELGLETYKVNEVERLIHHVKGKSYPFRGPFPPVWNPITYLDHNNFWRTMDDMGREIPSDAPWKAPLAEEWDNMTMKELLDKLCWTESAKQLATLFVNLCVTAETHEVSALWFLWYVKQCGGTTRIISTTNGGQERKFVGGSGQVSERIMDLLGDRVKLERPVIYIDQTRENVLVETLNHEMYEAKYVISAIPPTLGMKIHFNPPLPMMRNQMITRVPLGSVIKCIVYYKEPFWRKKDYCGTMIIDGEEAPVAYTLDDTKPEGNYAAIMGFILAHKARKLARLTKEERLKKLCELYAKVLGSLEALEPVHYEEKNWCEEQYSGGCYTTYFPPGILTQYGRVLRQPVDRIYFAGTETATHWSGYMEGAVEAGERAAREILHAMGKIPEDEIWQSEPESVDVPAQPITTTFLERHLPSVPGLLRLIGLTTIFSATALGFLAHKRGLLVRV
hMAO-A, sequence (P21397 whole entry): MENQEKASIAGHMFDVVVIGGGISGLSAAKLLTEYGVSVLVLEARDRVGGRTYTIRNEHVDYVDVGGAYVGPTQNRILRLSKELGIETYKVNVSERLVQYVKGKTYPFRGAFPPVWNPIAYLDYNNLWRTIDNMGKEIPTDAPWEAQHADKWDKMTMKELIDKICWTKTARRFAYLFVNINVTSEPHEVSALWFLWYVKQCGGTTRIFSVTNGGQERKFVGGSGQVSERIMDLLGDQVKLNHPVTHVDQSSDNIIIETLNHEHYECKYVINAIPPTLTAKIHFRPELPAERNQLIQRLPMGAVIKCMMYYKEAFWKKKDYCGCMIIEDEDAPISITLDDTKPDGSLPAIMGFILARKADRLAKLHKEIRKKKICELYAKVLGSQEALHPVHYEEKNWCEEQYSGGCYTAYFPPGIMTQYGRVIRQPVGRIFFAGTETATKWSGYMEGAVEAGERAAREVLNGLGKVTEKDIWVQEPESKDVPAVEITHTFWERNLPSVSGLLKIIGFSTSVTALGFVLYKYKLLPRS
recombinant human ALDH2, sequence (P05091 18-517): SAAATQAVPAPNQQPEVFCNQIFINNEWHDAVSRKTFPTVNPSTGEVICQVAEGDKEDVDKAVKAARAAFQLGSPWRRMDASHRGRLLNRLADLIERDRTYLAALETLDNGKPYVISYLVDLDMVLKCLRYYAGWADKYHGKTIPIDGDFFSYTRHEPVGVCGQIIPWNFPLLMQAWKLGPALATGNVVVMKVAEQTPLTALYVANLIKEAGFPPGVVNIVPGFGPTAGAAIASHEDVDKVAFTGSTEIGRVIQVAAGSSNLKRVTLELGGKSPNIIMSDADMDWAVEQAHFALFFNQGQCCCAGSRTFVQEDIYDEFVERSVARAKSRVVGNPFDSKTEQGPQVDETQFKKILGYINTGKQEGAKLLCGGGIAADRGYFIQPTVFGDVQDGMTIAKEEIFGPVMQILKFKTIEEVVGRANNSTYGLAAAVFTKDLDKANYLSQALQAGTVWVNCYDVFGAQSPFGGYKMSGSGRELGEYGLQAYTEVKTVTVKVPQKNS
human mitochondrial aldehyde dehydrogenase (ALDH-2), sequence (P05091 18-517): as above

SMILES	inhibition of ALDH-2 [1]	pIC50 (recombinant human ALDH2)	pIC50 (hMAO-A)	pIC50 (hMAO-B)	reduced cocaine dependency, as reduction in the average presses of the active lever ([2]; 2.5 mg/Kg, 2 hour pre-treatment)	reduced cocaine dependency, as reduction in the average presses of the active lever ([2]; 5.0 mg/Kg, 2 hour pre-treatment)	reduced cocaine dependency, as reduction in the average presses of the active lever ([2]; 10.0 mg/kg, 1 hour pre-treatment)	suppressing ethanol intake (ethanol intake)
O=c1c(-c2ccc(O)cc2)coc2cc(O[C@@H]3O[C@H](CO)[C@@H](O)[C@H](O)[C@H]3O)ccc12 [Daidzin, daidzin]	potent and selective inhibitors	–	–	–	–	–	–	–
CS(=O)(=O)Nc1ccc(-c2coc3cc(C#CC4CN(C(=O)C5CC5)C4)ccc3c2=O)cc1 [N-(4-(7-((1-(cyclopropanecarbonyl)azetidin-3-yl)ethynyl)-4-oxo-4H-chromen-3-yl)phenyl)methanesulfonamide]	–	8.30	< 3.89	< 3.89	70%	60%	87%	–
O=c1c(-c2ccc(O)cc2)coc2cc(O)ccc12 [daidzein]	–	–	–	–	–	–	–	effective in suppressing ethanol intake; also recorded: effective in suppressing ethanol uptake
CC(C)(C)OC(=O)N1CC(C#Cc2ccc3c(=O)c(-c4ccc(NS(C)(=O)=O)cc4)coc3c2)C1 [tert-butyl 3-((3-(4-(methylsulfonamido)phenyl)-4-oxo-4H-chromen-7-yl)ethynyl)azetidine-1-carboxylate]	–	8.05	< 3.89	< 3.89	–	–	–	–
CC(C)(C)OC(=O)N1CCC(C#Cc2ccc3c(=O)c(-c4ccc(NS(C)(=O)=O)cc4)coc3c2)CC1 [tert-butyl 4-((3-(4-(methylsulfonamido)phenyl)-4-oxo-4H-chromen-7-yl)ethynyl)piperidine-1-carboxylate]	–	7.07	< 3.89	< 3.89	–	–	–	–
CN(C(=O)OC(C)(C)C)C1(C(=O)N2CC(C#Cc3ccc4c(=O)c(-c5ccc(NS(C)(=O)=O)cc5)coc4c3)C2)CC1 [tert-butyl (1-(3-((3-(4-(methylsulfonamido)-phenyl)-4-oxo-4H-chromen-7-yl)ethynyl)azetidine-1-carbonyl)cyclopropyl)-methylcarbamate]	–	8.64	< 3.89	< 3.89	–	–	–	–

From patent US8673966B2, “ALDH-2 inhibitors in the treatment of addiction” (Gilead Sciences, Inc., priority 2011, dated 2014)
